Test results from ChEMBL document CHEMBL1221282, “The action of bromoconduritol on ER glucosidase II” (Bioorg Med Chem Lett, 2010).
pIC50: −log10 of the molar value.

Assays:
[1] = species: Rattus norvegicus; assay: Inhibition of rat liver glucosidase 2 assessed as inhibition of consumption at 100 uM after 24 hrs
[2] = Inhibition of rat liver glucosidase 2 assessed as inhibition of conversion of G2M9 to G1M9
[3] = species: Rattus norvegicus; assay: Inhibition of rat liver glucosidase 2 assessed as inhibition of consumption at 100 uM after 20 mins
[4] = Inhibition of rat liver glucosidase 2 assessed as inhibition of conversion of G1M9 to M9
[5] = species: Rattus norvegicus; assay: Inhibition of rat liver glucosidase 2 assessed as inhibition of consumption at 100 uM after 1 hr

Structure (SMILES) | inhibition [1] | pIC50 [2] | inhibition [3] | pIC50 [4] | inhibition [5]
O[C@H]1[C@H](O)C=CC(Br)[C@@H]1O (some centres undefined) [BROMOCONDURITOL] | < 10% | 3.58 | 36% | 4.39 | 20%
O[C@H]1[C@H](O)[C@@H](O)CN2CC[C@H](O)[C@H]12 [CASTANOSPERMINE] | – | 5.89 | – | 5.96 | –
OC[C@H]1NC[C@H](O)[C@@H](O)[C@@H]1O [DUVOGLUSTAT] | – | 5.09 | – | 4.95 | –
